Results from patent US8193189B2, “Quinoxaline derivatives as tyrosine kinase activity inhibitors” (Novartis AG, priority 2007, dated 2012).
Values belong to the compound of their own block, whether it stands above or below them.

Legend:
GST-TYK2(888-1187) = target: T1, GST-TYK2(888-1187) (Homo sapiens, UniProt P29597); test: EPK JAK-family kinases profiling assay (Caliper mobility shift), TYK2; assay type: biochemical; details: ATP 30 μM, 40 nM kinase
T1 construct: GST-TYK2(888-1187); made in house
T1 sequence (P29597 888-1187): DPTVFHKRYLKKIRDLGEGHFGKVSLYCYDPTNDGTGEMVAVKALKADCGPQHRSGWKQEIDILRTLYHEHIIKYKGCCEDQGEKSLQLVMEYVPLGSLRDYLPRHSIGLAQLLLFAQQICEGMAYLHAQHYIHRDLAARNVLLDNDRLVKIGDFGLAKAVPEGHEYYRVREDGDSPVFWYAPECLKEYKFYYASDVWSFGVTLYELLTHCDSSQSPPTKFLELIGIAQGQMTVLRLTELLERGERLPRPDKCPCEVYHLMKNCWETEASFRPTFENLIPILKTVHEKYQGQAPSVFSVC
Description: All four kinases of the JAK-family kinases were used as purified recombinant GST-fusion proteins, containing the active kinase domains. GST-JAK1(866-1154), GST-JAK3(811-1124), and GST-TYK2(888-1187) were expressed and purified by affinity chromatography at the EPK biology unit. GST-JAK2(808-1132) was purchased from Invitrogen (Carlsbad, USA, #4288).
The kinase assays were based on the Caliper mobility shift assay using the LabChip 3000 systems. This technology is similar to capillary electrophoresis and uses charge driven separation of substrate and product in a microfluidic chip.
All kinase reactions were performed in 384 well microtiter plates in a total reaction volume of 18 μl. The assay plates were prepared with 0.1 μl per well of test compound in the appropriate test concentration, as described under the section “preparation of compound dilutions”. The reactions were started by combining 9 μl of substrate mix (consisting of peptide and ATP) with 9 μl of kinase dilution. The reactions were incubated for 60 minutes at 30° C. and stopped by adding 70 μl of stop buffer (100 mM Hepes, 5% DMSO, 0.1% Coating reagent, 10 mM EDTA, 0.015% Brij 35).
Fluorescently labeled synthetic peptides were used as substrates in all reactions. […] Specific assay conditions are described in Table 1:
The terminated reactions were transferred to the Caliper LabChip 3000 reader and the turnover of each reaction was measured by determining the substrate/product ratio.
Test compounds were dissolved in DMSO (10 mM) and transferred into 1.4 mL flat bottom or V-shaped Matrix tubes carrying a unique 2D matrix chip by individual compound hubs. The numbers of these chips were distinctively linked to the individual compound identification numbers. The stock solutions were stored at −20° C. if not used immediately. For the test procedure the vials were defrosted and identified by a scanner whereby a working sheet was generated that guided the subsequent working steps.
Compound dilutions were made in 96 well plates. This format enabled the assay of maximally 40 individual test compounds at 8 concentrations (single points) including 4 reference compounds. The dilution protocol included the production of pre-dilution plates, master plates and assay plates:
Pre-dilution plates: 96 polypropylene well plates were used as pre-dilution plates. A total of 4 pre-dilution plates were prepared including 10 test compounds each on the plate positions A1-A10, one standard compound at A11 and one DMSO control at A12. All dilution steps were done on a HamiltonSTAR robot.
Master plates: 100 μL of individual compound dilutions including standard compound and controls of the 4 “pre-dilution plates” were transferred into a 384 “master plate” including the following concentrations 1′820, 564, 182, 54.6, 18.2, 5.46, 1.82 and 0.546 μM, respectively in 90% of DMSO.
Assay plates: Identical assay plates were then prepared by pipetting 100 nL each of compound dilutions of the master plates into 384-well “assay plates”. […] The preparation of the master plates were handled by the Matrix PlateMate Plus robot and replication of assay plates by the HummingBird robot.

[1] = test system: JAK/STAT pathway (JAK1/JAK2-dependent nuclear translocation of STAT1-GFP); test: Inhibition of the JAK/STAT pathway: IFN-γ stimulated nuclear translocation of STAT1-GFP in HT1080 fibrosarcoma cells; assay type: cell-based; details: Homo sapiens, HT-1080; HT1080 STAT1-GFP cells, 100 ng/ml IFN-γ 2 hours, compound added 30 min before; read-out: STAT1translo IC50
How it was run: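 Readout is the nuclear-minus-cytoplasmic GFP-STAT1 intensity, imaged at 10× using Hoechst-defined nuclear masks over at least 1000 cells/well. Stably transfected HT1080 fibrosarcoma cells were pretreated 30 min with compound (final 0.003–10 μM, 0.1% DMSO) before IFN-γ challenge.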

GST-JAK2(808-1132) = target: T2, GST-JAK2(808-1132) (Homo sapiens, UniProt O60674); test: EPK JAK-family kinases profiling assay (Caliper mobility shift), JAK2; assay type: biochemical; details: ATP 20 μM, 1.8 nM kinase
T2 construct: GST-JAK2(808-1132); purchased Invitrogen (Carlsbad, USA) #4288
How it was run: (§1)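 Turnover was read as substrate/product ratio after mobility-shift capillary-like separation of each reaction, run for 60 min at 30 °C with GST-tagged kinase domain, labelled peptide and ATP, and terminated with EDTA stop buffer.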

GST-JAK1(866-1154) = target: T3, GST-JAK1(866-1154) (Homo sapiens, UniProt P23458); test: EPK JAK-family kinases profiling assay (Caliper mobility shift), JAK1; assay type: biochemical; details: ATP 40 μM, 50 nM kinase
T3 construct: GST-JAK1(866-1154); made in house
How it was run: as §1

T3 sequence (P23458 866-1154): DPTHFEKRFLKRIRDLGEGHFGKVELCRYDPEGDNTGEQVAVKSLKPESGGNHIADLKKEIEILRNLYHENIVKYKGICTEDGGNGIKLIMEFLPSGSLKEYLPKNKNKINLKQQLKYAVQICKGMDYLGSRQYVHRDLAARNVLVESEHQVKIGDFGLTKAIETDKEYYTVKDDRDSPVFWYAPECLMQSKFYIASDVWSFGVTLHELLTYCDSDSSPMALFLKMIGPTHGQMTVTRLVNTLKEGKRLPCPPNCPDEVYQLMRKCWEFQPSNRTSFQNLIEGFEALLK
T2 sequence (O60674 808-1132): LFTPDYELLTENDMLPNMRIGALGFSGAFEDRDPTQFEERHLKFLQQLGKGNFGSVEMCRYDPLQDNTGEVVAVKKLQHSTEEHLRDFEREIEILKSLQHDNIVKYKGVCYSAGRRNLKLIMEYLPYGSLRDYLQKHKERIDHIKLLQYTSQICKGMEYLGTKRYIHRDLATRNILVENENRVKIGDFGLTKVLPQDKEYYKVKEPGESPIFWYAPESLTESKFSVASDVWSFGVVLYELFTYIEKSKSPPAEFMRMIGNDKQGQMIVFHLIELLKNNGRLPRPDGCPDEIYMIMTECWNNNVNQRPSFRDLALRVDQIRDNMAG

Structure (SMILES): Cc1cc(-c2cccc3ncc(-c4cnn(C5CCNCC5)c4)nc23)ccc1C(=O)N1CCOCC1 [Example 100, {2-Methyl-4-[3-(1-piperidin-4-yl-1H-pyrazol-4-yl)-quinoxalin-5-yl]-phenyl}-morpholin-4-yl-methanone]
IC50 (GST-TYK2(888-1187)): 1200 nM
IC50 [1]: 12600 nM
IC50 (GST-JAK2(808-1132)): 130 nM
IC50 (GST-JAK1(866-1154)): 1400 nM

Structure (SMILES): CN1CCN(c2ccc(-c3cnc4cccc(-c5ccc(CN6CCS(=O)(=O)CC6)cc5)c4n3)cn2)CC1 [Example 109, 8-[4-(1,1-Dioxido-thiomorpholin-4-ylmethyl)-phenyl]-2-[6-(4-methyl-piperazin-1-yl)-pyridin-3-yl]-quinoxaline]
IC50 (GST-TYK2(888-1187)): 360 nM
IC50 [1]: 3060 nM
IC50 (GST-JAK2(808-1132)): 24 nM
IC50 (GST-JAK1(866-1154)): 150 nM

Structure (SMILES): Cc1cc(-c2cnc3cccc(-c4cc(F)c(CN5CCOCC5)c(F)c4)c3n2)ccc1C(=O)NCCO [Example 120, 4-[8-(3,5-Difluoro-4-morpholin-4-ylmethyl-phenyl)-quinoxalin-2-yl]-N-(2-hydroxy-ethyl)-2-methyl-benzamide]
IC50 (GST-TYK2(888-1187)): 350 nM
IC50 [1]: 1730 nM
IC50 (GST-JAK2(808-1132)): 13 nM
IC50 (GST-JAK1(866-1154)): 130 nM

Structure (SMILES): Cc1nn(C2CCNCC2)cc1-c1cnc2cccc(-c3cc(F)c(CN4CCOCC4)c(F)c3)c2n1 [Example 127, 8-(3,5-Difluoro-4-morpholin-4-ylmethyl-phenyl)-2-(3-methyl-1-piperidin-4-yl-1H-pyrazol-4-yl)-quinoxaline]
IC50 (GST-TYK2(888-1187)): 38 nM
IC50 [1]: 86 nM
IC50 (GST-JAK2(808-1132)): < 3 nM
IC50 (GST-JAK1(866-1154)): 66 nM

Structure (SMILES): O=C(C1CC1)N1CCC(n2cc(-c3cnc4cccc(-c5cc(F)c(CN6CCOCC6)c(F)c5)c4n3)cn2)CC1 [Example 129, Cyclopropyl-(4-{4-[8-(3,5-difluoro-4-morpholin-4-ylmethyl-phenyl)-quinoxalin-2-yl]-pyrazol-1-yl}-piperidin-1-yl)-methanone]
IC50 (GST-TYK2(888-1187)): 96 nM
IC50 [1]: 162 nM
IC50 (GST-JAK2(808-1132)): < 3 nM
IC50 (GST-JAK1(866-1154)): 78 nM

Structure (SMILES): Cc1nn(C2CCN(C(=O)C(C)C)CC2)cc1-c1cnc2cccc(-c3cc(F)c(CN4CCOCC4)c(F)c3)c2n1 [Example 131, 1-(4-{4-[8-(3,5-Difluoro-4-morpholin-4-ylmethyl-phenyl)-quinoxalin-2-yl]-3-methyl-pyrazol-1-yl}-piperidin-1-yl)-2-methyl-propan-1-one]
IC50 (GST-TYK2(888-1187)): 33 nM
IC50 [1]: 90 nM
IC50 (GST-JAK2(808-1132)): < 3 nM
IC50 (GST-JAK1(866-1154)): 50 nM

Structure (SMILES): CC(C)(C)OC(=O)N1CCC(n2cc(-c3cnc4cccc(-c5cc(F)c(CN6CCOCC6)c(F)c5)c4n3)cn2)CC1 [Example 136, 4-{4-[8-(3,5-Difluoro-4-morpholin-4-ylmethyl-phenyl)-quinoxalin-2-yl]-pyrazol-1-yl}-piperidine-1-carboxylic acid tert-butyl ester]
IC50 (GST-TYK2(888-1187)): 260 nM
IC50 [1]: 532 nM
IC50 (GST-JAK2(808-1132)): 4.6 nM
IC50 (GST-JAK1(866-1154)): 290 nM

Structure (SMILES): CS(=O)(=O)c1ccc(-c2cccc3ncc(-c4cnn(C5CCNCC5)c4)nc23)cc1 [Example 144, 8-(4-Methanesulfonyl-phenyl)-2-(1-piperidin-4-yl-1H-pyrazol-4-yl)-quinoxaline]
IC50 (GST-TYK2(888-1187)): 970 nM
IC50 [1]: 7660 nM
IC50 (GST-JAK2(808-1132)): 25 nM
IC50 (GST-JAK1(866-1154)): 960 nM

Structure (SMILES): Fc1cc(-c2cccc3ncc(-c4cnn(C5CCNCC5)c4)nc23)ccc1CN1CCOCC1 [Example 145, 8-(3-Fluoro-4-morpholin-4-ylmethyl-phenyl)-2-(1-piperidin-4-yl-1H-pyrazol-4-yl)-quinoxaline]
IC50 (GST-TYK2(888-1187)): 300 nM
IC50 [1]: 685 nM
IC50 (GST-JAK2(808-1132)): 10 nM
IC50 (GST-JAK1(866-1154)): 250 nM

Structure (SMILES): Cc1cc(-c2cccc3ncc(-c4cnn(C5CCNCC5)c4)nc23)ccc1CN1CCOCC1 [Example 146, 8-(3-Methyl-4-morpholin-4-ylmethyl-phenyl)-2-(1-piperidin-4-yl-1H-pyrazol-4-yl)-quinoxaline]
IC50 (GST-TYK2(888-1187)): 570 nM
IC50 [1]: 3390 nM
IC50 (GST-JAK2(808-1132)): 9.2 nM
IC50 (GST-JAK1(866-1154)): 840 nM

Structure (SMILES): O=S1(=O)CCN(Cc2ccc(-c3cccc4ncc(-c5cnn(C6CCNCC6)c5)nc34)cc2)CC1 [Example 148, 8-[4-(1,1-Dioxido-thiomorpholin-4-ylmethyl)-phenyl]-2-(1-piperidin-4-yl-1H-pyrazol-4-yl)-quinoxaline]
IC50 (GST-TYK2(888-1187)): 110 nM
IC50 [1]: 730 nM
IC50 (GST-JAK2(808-1132)): 3.4 nM
IC50 (GST-JAK1(866-1154)): 73 nM

Structure (SMILES): Cc1cc(CN2CCS(=O)(=O)CC2)ccc1-c1cccc2ncc(-c3cnn(C4CCNCC4)c3)nc12 [Example 149, 8-[4-(1,1-Dioxido-thiomorpholin-4-ylmethyl)-2-methyl-phenyl]-2-(1-piperidin-4-yl-1H-pyrazol-4-yl)-quinoxaline]
IC50 (GST-TYK2(888-1187)): 900 nM
IC50 [1]: 9560 nM
IC50 (GST-JAK2(808-1132)): 51 nM
IC50 (GST-JAK1(866-1154)): 650 nM

Structure (SMILES): c1cc(-c2ccc(CN3CCOCC3)cc2)c2nc(-c3cnn(C4CCNCC4)c3)cnc2c1 [Example 150, 8-(4-Morpholin-4-ylmethyl-phenyl)-2-(1-piperidin-4-yl-1H-pyrazol-4-yl)-quinoxaline]
IC50 (GST-TYK2(888-1187)): 830 nM
IC50 [1]: 4280 nM
IC50 (GST-JAK2(808-1132)): 30 nM
IC50 (GST-JAK1(866-1154)): 830 nM

Next, values leading:

IC50 (GST-TYK2(888-1187)): 510 nM
IC50 [1]: 1350 nM
IC50 (GST-JAK2(808-1132)): 6.1 nM
IC50 (GST-JAK1(866-1154)): 240 nM
Structure (SMILES): Fc1cc(-c2cccc3ncc(-c4cnn(CC5CCCNC5)c4)nc23)cc(F)c1CN1CCOCC1 (racemic) [Example 135, (rac)-8-(3,5-Difluoro-4-morpholin-4-ylmethyl-phenyl)-2-(1-piperidin-3-ylmethyl-1H-pyrazol-4-yl)-quinoxaline]

IC50 (GST-TYK2(888-1187)): 210 nM
IC50 [1]: 369 nM
IC50 (GST-JAK2(808-1132)): < 3 nM
IC50 (GST-JAK1(866-1154)): 310 nM
Structure (SMILES): Cc1c(-c2cnc3cccc(-c4cc(F)c(CN5CCOCC5)c(F)c4)c3n2)cnn1C1CCNCC1 [Example 125, 8-(3,5-Difluoro-4-morpholin-4-ylmethyl-phenyl)-2-(5-methyl-1-piperidin-4-yl-1H-pyrazol-4-yl)-quinoxaline]

IC50 (GST-TYK2(888-1187)): 160 nM
IC50 [1]: 196 nM
IC50 (GST-JAK2(808-1132)): < 3 nM
IC50 (GST-JAK1(866-1154)): 130 nM
Structure (SMILES): Fc1cc(-c2cccc3ncc(-c4cnn(C5CCN(C6CC6)CC5)c4)nc23)cc(F)c1CN1CCOCC1 [Example 128, 2-[1-(1-Cyclopropyl-piperidin-4-yl)-1H-pyrazol-4-yl]-8-(3,5-difluoro-4-morpholin-4-ylmethyl-phenyl)-quinoxaline]

IC50 (GST-TYK2(888-1187)): 200 nM
IC50 [1]: 163 nM
IC50 (GST-JAK2(808-1132)): 3.4 nM
IC50 (GST-JAK1(866-1154)): 150 nM
Structure (SMILES): COC(=O)N1CCC(n2cc(-c3cnc4cccc(-c5cc(F)c(CN6CCOCC6)c(F)c5)c4n3)cn2)CC1 [Example 130, 4-{4-[8-(3,5-Difluoro-4-morpholin-4-ylmethyl-phenyl)-quinoxalin-2-yl]-pyrazol-1-yl}-piperidine-1-carboxylic acid methyl ester]

IC50 (GST-TYK2(888-1187)): 750 nM
IC50 [1]: 840 nM
IC50 (GST-JAK2(808-1132)): 5.4 nM
IC50 (GST-JAK1(866-1154)): 550 nM
Structure (SMILES): Fc1cc(-c2cccc3ncc(-c4cnn(CC5CCNCC5)c4)nc23)cc(F)c1CN1CCOCC1 [Example 133, 8-(3,5-Difluoro-4-morpholin-4-ylmethyl-phenyl)-2-(1-piperidin-4-ylmethyl-1H-pyrazol-4-yl)-quinoxaline]
